Reference: US9908893B2 (Latvian Institute of Organic Synthesis, priority 2013, dated 2018)

Experiments:
[1] = test system: A7R5 (rat aorta smooth muscle) cells; experiment: Intracellular Ca2+ measurements, Fluo-4 NW Calcium Assay Kit, KCl-induced [Ca2+]i increase; assay type: cell-based; conditions: for IC50: Rattus norvegicus, A7R5, read-out: Ca^2+ A7R5, IC50; for Ca^2+ antagonist effect compared with Verapamil: relative to Verapamil; for Ca^2+ antagonist effect compared with Verapamil / Ca^2+ A7R5, IC50: A7R5 cells; for Ca^2+ A7R5, IC50: KCl (50 mM) induced [Ca2+]i increase, compounds 0.8 to 100 μM
Experimental: Changes in intracellular [Ca^2+] concentration were studied using A7R5 (rat aorta smooth muscle) cells and Fluo-4 NW Calcium Assay Kit (“Invitrogen”, Sweden) according to manufacturer's instructions.
Changes in intracellular [Ca^2+]i concentration were studied using Fluo-4 NW Calcium Assay Kit (“Invitrogen”, Sweden) accordingly to manufacturer's instructions. The A7R5 (rat aorta smooth muscle) cells were grown at 37° C. in a humidified atmosphere with 5% CO2/95% air in DMEM medium containing 2 mM glutamine and supplemented with 10% FBS. The cells were seeded into 96 well plate at 10,000 cells/well and incubated for 72 h. The cells were loaded with […] for 45 min. The Fura-4NW loaded cells were pre-incubated in the dark for 15 minutes with tested compounds at concentrations from 0.8 to 100 μM. Then A7R5 cells were pre-treated with 1.5 mM CaCl2 for 5 minutes and KCl (50 mM) was added to A7R5 cells to induce [Ca^2+]i increase. Amlodipine, the well-known calcium channel inhibitor was used as the positive control.

[2] = Basal toxicity test, neutral red, alternative LD50 calculated from IC50; conditions: mouse, LD50, alternative LD50 calculated by formula from IC50 in NIH 3T3 cells
Experimental: A low therapeutic index of chemotherapy agents is due to affecting not only cancer formation but also normal cells.
9,000 NIH 3T3 cells/well were placed into 96-well plates for 24 h and then exposed to the test compound over a range of eight concentration (1-1000 μg/ml) for 24 h. Upon that, the cells were incubated with the neutral red dye for 4 h and then OD was determined at 540 nm. […] The IC50 values were calculated using the program Graph Pad Prism® 4.0

P-glycoprotein (P-gp) = P-glycoprotein (P-gp) (Homo sapiens, UniProt P08183); experiment: Measurement of P-glycoprotein activity: rhodamine 123 accumulation in MES-SA and MES-SA/Dx5 cells; conditions: for inhibition of MDR transport proteins (P-gp, MRP1, BCRP1), summary in words: summary of the P-gp, MRP1 and BCRP1 efflux assays
Sequence of P-glycoprotein (P-gp) (P08183 whole entry): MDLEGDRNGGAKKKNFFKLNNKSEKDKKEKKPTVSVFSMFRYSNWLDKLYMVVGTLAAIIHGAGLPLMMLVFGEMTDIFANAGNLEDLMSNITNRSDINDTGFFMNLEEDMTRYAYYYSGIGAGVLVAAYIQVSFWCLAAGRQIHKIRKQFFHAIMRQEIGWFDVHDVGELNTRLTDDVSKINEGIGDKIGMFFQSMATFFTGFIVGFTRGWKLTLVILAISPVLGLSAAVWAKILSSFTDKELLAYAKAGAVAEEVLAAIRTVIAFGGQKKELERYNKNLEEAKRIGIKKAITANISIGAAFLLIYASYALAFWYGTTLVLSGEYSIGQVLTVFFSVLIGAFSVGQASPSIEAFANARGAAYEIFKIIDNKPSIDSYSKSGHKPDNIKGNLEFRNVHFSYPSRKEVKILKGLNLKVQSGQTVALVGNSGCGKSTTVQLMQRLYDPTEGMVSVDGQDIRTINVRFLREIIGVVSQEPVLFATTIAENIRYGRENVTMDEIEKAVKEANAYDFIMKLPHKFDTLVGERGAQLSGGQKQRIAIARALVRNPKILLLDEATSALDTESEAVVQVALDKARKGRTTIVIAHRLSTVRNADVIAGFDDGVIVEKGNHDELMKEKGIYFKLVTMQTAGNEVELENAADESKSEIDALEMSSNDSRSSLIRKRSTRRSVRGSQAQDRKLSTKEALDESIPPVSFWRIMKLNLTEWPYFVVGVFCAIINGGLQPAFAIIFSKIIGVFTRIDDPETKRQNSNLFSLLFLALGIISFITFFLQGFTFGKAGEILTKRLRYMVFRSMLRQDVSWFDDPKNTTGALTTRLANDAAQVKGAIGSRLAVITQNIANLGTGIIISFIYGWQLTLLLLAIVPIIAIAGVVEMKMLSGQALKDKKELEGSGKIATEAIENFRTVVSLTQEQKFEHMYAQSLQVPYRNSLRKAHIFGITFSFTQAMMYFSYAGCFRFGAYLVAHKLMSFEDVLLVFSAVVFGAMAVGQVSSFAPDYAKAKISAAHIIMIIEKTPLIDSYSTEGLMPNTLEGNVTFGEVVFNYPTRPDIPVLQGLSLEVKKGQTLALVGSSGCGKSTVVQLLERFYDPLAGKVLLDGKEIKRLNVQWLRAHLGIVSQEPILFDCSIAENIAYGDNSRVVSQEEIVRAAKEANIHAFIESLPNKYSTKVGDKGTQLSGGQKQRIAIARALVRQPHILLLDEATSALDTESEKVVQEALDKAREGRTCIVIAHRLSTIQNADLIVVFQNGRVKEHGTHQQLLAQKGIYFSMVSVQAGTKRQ
Experimental: Thieno[2,3-b]pyridines of the formula (I) were tested to reveal MDR-blocking activity.
About 50,000 cells/well of the human uterine sarcoma cell line MESSA and MES-SA/Dx5 were seeded into the 96-well plates and incubated for 24 h. The MDR modulators were incubated with the cells for 15 min. […] The EC50 values were calculated using the program Graph Pad Prism® 4.0.

Row | SMILES | IC50 [1] [µM] | Ca^2+ antagonist effect compared with Verapamil [1] | LD50 at 24 h [2] [mg/kg] | inhibition of MDR transport proteins (P-gp, MRP1, BCRP1), summary in words (P-glycoprotein (P-gp)) | Ca^2+ A7R5, IC50 [1] | MDR, EC50, P-gp (P-glycoprotein (P-gp); rhodamine 123 accumulation, doxorubicin resistant MES-SA/Dx5 cells)
1 | COC(=O)c1c(C)nc2sc(C(=O)c3ccc(OC)cc3)c(N)c2c1-c1cc(OC)c(OC)c(OC)c1 [Compound 10, 3-Amino-2-(4-methoxybenzoyl)-6-methyl-4-(3,4,5-trimethoxyphenyl)thieno[2,3-b]pyridine-5-carboxylic acid methyl ester] | 9 ± 0.7 | more than ten times lower | > 2000 | inhibit three MDR transport proteins: P-gp, MRP1 and BCRP1 |  | 
2 | COC(=O)c1c(C)nc2sc(C(=O)c3ccc(OC)cc3OC)c(N)c2c1-c1cc(OC)c(OC)c(OC)c1 [Compound 11, 3-Amino-2-(2,4-dimethoxybenzoyl)-6-methyl-4-(3,4,5-trimethoxyphenyl)thieno[2,3-b]pyridine-5-carboxylic acid methyl ester] | 18 ± 1 | more than ten times lower | > 2000 | inhibit three MDR transport proteins: P-gp, MRP1 and BCRP1 |  | 
3 | CCOC(=O)c1c(C)nc2sc(C(=O)c3ccc(OC)cc3)c(N)c2c1-c1ccc(OC)cc1 [Compound 17, 3-Amino-2-(4-methoxybenzoyl)-4-(4-methoxyphenyl)-6-methylthieno[2,3-b]-pyridine-5-carboxylic acid ethyl ester] | 100 ± 11 |  | > 2000 |  |  | 
4 | CCOC(=O)c1c(C)nc2sc(C(=O)c3ccc(F)cc3)c(N)c2c1-c1ccc(OC)c(OC)c1 [Compound 18, 3-Amino-4-(3,4-dimethoxyphenyl)-2-(4-fluorobenzoyl)-6-methylthieno[2,3-b]-pyridine-5-carboxylic acid ethyl ester] | 7 ± 1.2 |  | > 2000 |  |  | 
5 | CCOC(=O)c1c(C)nc2sc(C(=O)c3ccc(Cl)cc3)c(N)c2c1-c1ccc(OC)c(OC)c1 [Compound 19, 3-Amino-2-(4-chlorobenzoyl)-4-(3,4-dimethoxyphenyl)-6-methylthieno[2,3-b]-pyridine-5-carboxylic acid ethyl ester] | 11 ± 0.7 |  | > 2000 |  |  | 
6 | CCOC(=O)c1c(C)nc2sc(C(=O)c3ccc(OC)cc3)c(N)c2c1-c1ccc(OC)c(OC)c1 [Compound 20, 3-Amino-4-(3,4-dimethoxyphenyl)-2-(4-methoxybenzoyl)-6-methylthieno[2,3-b]-pyridine-5-carboxylic acid ethyl ester] | 3 ± 0.4 |  | 2040 |  |  | 
7 | CCOC(=O)c1c(C)nc2sc(C(=O)c3ccc(OC)cc3OC)c(N)c2c1-c1ccc(OC)c(OC)c1 [Compound 21, 3-Amino-2-(2,4-dimethoxybenzoyl)-4-(3,4-dimethoxyphenyl)-6-methyl-thieno[2,3-b]pyridine-5-carboxylic acid ethyl ester] | 1.2 ± 0.2 |  | 2360 |  |  | 
8 | CCOC(=O)c1c(C)nc2sc(C(=O)c3ccc(F)cc3)c(N)c2c1-c1cc(OC)c(OC)c(OC)c1 [Compound 22, 3-Amino-2-(4-fluorobenzoyl)-4-(3,4,5-trimethoxyphenyl)-6-methylthieno[2,3-b]-pyridine-5-carboxylic acid ethyl ester] | 20 ± 2 | more than ten times lower | > 2000 |  |  | 
9 | CCOC(=O)c1c(C)nc2sc(C(=O)c3ccc(Cl)cc3)c(N)c2c1-c1cc(OC)c(OC)c(OC)c1 [Compound 23, 3-Amino-2-(4-chlorobenzoyl)-4-(3,4,5-trimethoxyphenyl)-6-methylthieno[2,3-b]-pyridine-5-carboxylic acid ethyl ester] | 4 ± 0.4 |  | 2700 |  |  | 
10 | CCOC(=O)c1c(C)nc2sc(C(=O)c3ccc(OC)cc3)c(N)c2c1-c1ccc(OCC)cc1 [Compound 26, 3-Amino-4-(4-ethoxyphenyl)-2-(4-methoxybenzoyl)-6-methylthieno[2,3-b]-pyridine-5-carboxylic acid ethyl ester] | > 100 |  | > 2000 |  |  | 
11 | CCOC(=O)c1c(C)nc2sc(C(=O)c3ccc(OC)cc3)c(N)c2c1-c1ccc(Cl)cc1 [Compound 28, 3-Amino-4-(4-chlorophenyl)-2-(4-methoxybenzoyl)-6-methylthieno[2,3-b]-pyridine-5-carboxylic acid ethylester] | > 100 |  | > 2000 |  |  | 
12 | CCOC(=O)c1c(C)nc2sc(C(=O)c3ccc(OC)cc3)c(N)c2c1-c1ccc(N(C)C)cc1 [Compound 29, 3-Amino-4-(4-dimethylaminophenyl)-2-(4-methoxybenzoyl)-6-methylthieno[2,3-b]-pyridine-5-carboxylic acid ethylester] | 35 ± 3 |  | > 2000 | selectively inhibit P-gp and BCRP1 |  | 
13 | CCCCOC(=O)c1c(C)nc2sc(C(=O)c3ccc(OC)cc3)c(N)c2c1-c1cc(OC)c(OC)c(OC)c1 [Compound 30, 3-Amino-2-(4-methoxybenzoyl)-6-methyl-4-(3,4,5-trimethoxyphenyl)thieno[2,3-b]-pyridine-5-carboxylic acid butyl ester] | 5 ± 0.7 |  | > 2000 |  |  | 
14 | COCCOC(=O)c1c(C)nc2sc(C(=O)c3ccc(OC)cc3)c(N)c2c1-c1ccc(OC)cc1 [Compound 31, 3-Amino-2-(4-methoxybenzoyl)-4-(4-methoxyphenyl)-6-methylthieno[2,3-b]-pyridine-5-carboxylic acid 2-methoxyethyl ester] | 21 ± 4 |  | > 2000 |  |  | 
15 | COCCOC(=O)c1c(C)nc2sc(C(=O)c3ccccc3)c(N)c2c1-c1cc(OC)c(OC)c(OC)c1 [Compound 32, 3-Amino-2-benzoyl-6-methyl-4-(3,4,5-trimethoxyphenyl)thieno[2,3-b]pyridine-5-carboxylic acid 2-methoxyethyl ester] | 2.2 ± 0.3 | more than ten times lower | > 2000 |  |  | 
16 | COCCOC(=O)c1c(C)nc2sc(C(=O)c3cccc(OC)c3)c(N)c2c1-c1cc(OC)c(OC)c(OC)c1 [Compound 33, 3-Amino-2-(3-methoxybenzoyl)-6-methyl-4-(3,4,5-trimethoxyphenyl)thieno[2,3-b]-pyridine-5-carboxylic acid 2-methoxyethyl ester] | 6.2 ± 0.7 |  | > 2000 | selectively inhibit P-gp and BCRP1 |  | 
17 | COCCOC(=O)c1c(C)nc2sc(C(=O)c3ccc(OC)cc3)c(N)c2c1-c1cc(OC)c(OC)c(OC)c1 [Compound 34, 3-Amino-2-(4-methoxybenzoyl)-6-methyl-4-(3,4,5-trimethoxyphenyl)thieno[2,3-b]-pyridine-5-carboxylic acid 2-methoxyethyl ester] | 3.1 ± 0.4 | more than ten times lower | > 2000 |  |  | 
18 | COCCOC(=O)c1c(C)nc2sc(C(=O)c3ccc(OC)cc3OC)c(N)c2c1-c1cc(OC)c(OC)c(OC)c1 [Compound 35, 3-Amino-2-(2,4-dimethoxybenzoyl)-6-methyl-4-(3,4,5-trimethoxyphenyl)-thieno[2,3-b]pyridine-5-carboxylic acid 2-methoxyethyl ester] | 9 ± 1 | more than ten times lower | > 2000 |  |  | 
19 | CCOC(=O)c1c(-c2cc(OC)c(OC)c(OC)c2)nc2sc(C(=O)c3ccc(OC)cc3)c(N)c2c1-c1cc(OC)c(OC)c(OC)c1 [Compound 39, 3-Amino-4,6-bis-(3,4,5-trimethoxyphenyl)-2-(4-methoxybenzoyl)thieno[2,3-b]-pyridine-5-carboxylic acid ethyl ester] |  |  | > 2000 |  | No effect | 
20 | CCOC(=O)c1c(-c2cc(OC)c(OC)c(OC)c2)nc2sc(C(=O)c3cc(OC)c(OC)c(OC)c3)c(N)c2c1-c1cc(OC)c(OC)c(OC)c1 [Compound 40, 3-Amino-4,6-bis-(3,4,5-trimethoxyphenyl)-2-(3,4,5-trimethoxybenzoyl)-thieno[2,3-b]pyridine-5-carboxylic acid ethyl ester] |  |  | > 2000 |  | No effect | 
21 | CN(C)C(=O)CCSC(SCCC(=O)O)c1cccc(/C=C/c2ccc3ccc(Cl)cc3n2)c1 (centres unmarked) [MK-571, reference compound] |  |  | 752 |  | No effect | No effect
